In experiment [1] the target is GluCl (C. elegans GluClα, GluClcryst) (Caenorhabditis elegans, UniProt G5EBR3, DEL364-421/INS363AGT). In words: radioligand competition with [3H]-ivermectin. In kind it is binding.
In experiment [2] the target is T1, GluCl (C. elegans GluClα, GluClcryst) (Caenorhabditis elegans, UniProt G5EBR3, INS363AGT/DEL364-421).
T1 sequence (G5EBR3 with tags, fused parts or gaps INS363AGT/DEL364-421): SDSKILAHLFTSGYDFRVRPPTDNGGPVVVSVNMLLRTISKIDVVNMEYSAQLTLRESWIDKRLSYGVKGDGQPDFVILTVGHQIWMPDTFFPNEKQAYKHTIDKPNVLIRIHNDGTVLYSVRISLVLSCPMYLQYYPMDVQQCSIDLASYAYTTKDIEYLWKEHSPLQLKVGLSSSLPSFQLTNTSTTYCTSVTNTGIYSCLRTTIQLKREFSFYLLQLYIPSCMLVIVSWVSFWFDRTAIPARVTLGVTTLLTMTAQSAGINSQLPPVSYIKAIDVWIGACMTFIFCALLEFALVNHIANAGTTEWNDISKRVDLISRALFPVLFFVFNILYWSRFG
In words: X-ray crystal structure at […] Å. The format is binding.

The Ki is a dissociation constant, usually derived from enzyme kinetics or from competition with a known ligand. Low values mean higher affinity, high ones lower affinity. On to `CCCCCCCC/C=C\CCCCCCCC(=O)O[C@H](COC(=O)CCCCCCCCCCCCCCC)COP(=O)(O)OC[C@H](N)C(=O)O` [POPS, 1-palmitoyl-2-oleoyl-sn-glycero-3-phosphoserine], for which the Ki in experiment [1] turned out to be 167 µM.
As to `CCCCCCCC/C=C\CCCCCCCC(=O)O[C@@H](COC(=O)CCCCCCCCCCCCCCC)COP(=O)([O-])OCC[N+](C)(C)C` [POPC, 1-palmitoyl-2-oleoyl-sn-glycero-3-phosphocholine], the “X-ray crystal structure at 3.2 Å” value in experiment [2] was “We modeled these densities as POPC molecules with the phosphocholine head group pointing towards the center of the pore”.
